The target in this experiment is T1, human mGluR2 (Homo sapiens, UniProt Q14416).
T1 construct: fused on or other part: If FLIPR: the intracellular domain of the human calcium receptor (CASR, P41180) in place of mGluR2's own, and the promiscuous chimeric G protein Gaqi5 fused on; If GTPgammaS: nothing
T1 sequence (Q14416 19-819 limits assumed): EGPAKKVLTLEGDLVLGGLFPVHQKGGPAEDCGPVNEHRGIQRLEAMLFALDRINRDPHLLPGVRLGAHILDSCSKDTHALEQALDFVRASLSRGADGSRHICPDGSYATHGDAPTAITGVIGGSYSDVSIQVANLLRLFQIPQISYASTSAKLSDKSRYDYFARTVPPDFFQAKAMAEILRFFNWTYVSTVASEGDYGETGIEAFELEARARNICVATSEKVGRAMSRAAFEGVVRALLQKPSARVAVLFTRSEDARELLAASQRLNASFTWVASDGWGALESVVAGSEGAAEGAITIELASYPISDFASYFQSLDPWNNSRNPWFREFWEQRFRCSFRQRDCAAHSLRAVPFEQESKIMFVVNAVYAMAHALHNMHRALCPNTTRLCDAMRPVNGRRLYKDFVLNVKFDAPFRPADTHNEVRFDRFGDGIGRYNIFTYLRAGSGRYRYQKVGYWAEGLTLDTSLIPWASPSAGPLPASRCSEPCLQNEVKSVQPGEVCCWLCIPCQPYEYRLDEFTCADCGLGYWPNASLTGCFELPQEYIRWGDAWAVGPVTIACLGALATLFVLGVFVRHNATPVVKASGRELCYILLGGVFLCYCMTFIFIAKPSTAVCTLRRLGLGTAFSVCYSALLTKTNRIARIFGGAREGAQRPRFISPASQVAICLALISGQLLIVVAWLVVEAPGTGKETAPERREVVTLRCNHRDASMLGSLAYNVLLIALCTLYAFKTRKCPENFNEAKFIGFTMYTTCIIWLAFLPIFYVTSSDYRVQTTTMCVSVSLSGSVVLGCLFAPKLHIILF
Nature of the experiment: mGluR2 potentiator assays described herein (FLIPR calcium mobilization in HEK 293 cells expressing chimeric mGluR2/CaR, or [35S]-GTPγS binding with CHO membranes). In kind it is cell-based. The settings on record: active in the assays described herein; which assay (FLIPR or GTPγS) is not stated. The source says:
The pharmacological properties of the compounds of the invention can be analyzed using standard assays for functional activity. Examples of glutamate receptor assays are well known in the art as described in, for example, Aramori et al., 1992, Neuron, 8:757; Tanabe et al., 1992, Neuron, 8:169; Miller et al., 1995, J. Neuroscience, 15:6103; Balazs, et al., 1997, J. Neurochemistry, 1997,69:151. The methodology described in these publications is incorporated herein by reference. Conveniently, the compounds of the invention can be studied by means of an assay that measures the mobilization of intracellular calcium, [Ca^2+]i in cells expressing mGluR2.
Fluorometric Imaging Plate Reader (FLIPR) analysis was used to detect allosteric activators of mGluR2 via calcium mobilization. A clonal HEK 293 cell line expressing a chimeric mGluR2/CaR construct comprising the extracellular and transmembrane domains of human mGluR2 and the intracellular domain of the human calcium receptor, fused to the promiscuous chimeric protein Gaqi5 was used. […] At 24-hours prior to analysis, the cells were trypsinized and plated in DMEM at 100,000 cells/well in black sided, clear-bottom, collagen I coated, 96-well plates. The plates were incubated under 5% CO2 at 37° C. overnight. Cells were loaded with 6 μM fluo-3 acetoxymethylester (Molecular Probes, Eugene Oreg.) for 60 min. at room temperature. All assays were performed in a buffer containing 126 mM NaCl, 5 mM KCl, 1 mM MgCl2, 1 mM CaCl2, 20 mM Hepes, 0.06 μM DCG-IV (a Group II mGluR selective agonist), supplemented with 1.0 mg/ml D-glucose and 1.0 mg/ml BSA fraction IV (pH 7.4).
FLIPR experiments were done using a laser setting of 0.8 W and a 0.4 second CCD camera shutter speed. Extracellular fluo-3 was washed off and cells were maintained in 160 μL of buffer and placed in the FLIPR. An addition of test compound (0.01 μM to 30 μM in duplicate) was made after 10 seconds of baseline fluorescent readings were recorded on FLIPR. Fluorescent signals were then recorded for an additional 75 seconds at which point a second addition of DCG-IV (0.2 μM) was made and fluorescent signals were recorded for an additional 65 seconds. Fluorescent signals were measured as the peak height of the response within the sample period. Data was analyzed using Assay Explorer, and EC50 and Emax values (relative to maximum DCG-IV effect) were calculated using a four parameter logistic equation.
A [^35S]-GTPγS binding assay was used to functionally assay mGluR2 receptor activation. The allosteric activator activity of compounds at the human mGluR2 receptor was measured using a [^35S]-GTPγS binding assay with membranes prepared from CHO cells which stably express the human mGluR2. The assay is based upon the principle that agonists bind to G-protein coupled receptors to stimulate GDP-GTP exchange at the G-protein. Since [^35S]-GTPγS is a non-hydrolyzable GTP analog, it can be used to provide an index of GDP-GTP exchange and, thus, receptor activation. The GTPγS binding assay therefore provides a quantitative measure of receptor activation.
Membranes were prepared from CHO cells stably transfected with human mGluR2. […] The amount of radioactivity bound was determined by counting plates on the Packard TopCount. […]
(Calcium flux is commonly read through the fluorescence of an indicator in the cells.)
Usually EC50 stands for the concentration at which the effect is half-maximal. On to `Fc1ccc(C2CCN(Cc3nc4cccc5c4n3CCO5)CC2)cc1` [Example 26.69], for which the EC50 came to 0.23 µM.

Consider `CC1CCc2cc(F)cc3nc(CN4CCC(Oc5ccccc5Cl)CC4)n1c23` (centres unmarked) [Example 26.55, 8-fluoro-4-methyl-2-[4-(2-chlorophenoxy)-piperidin-1-ylmethyl]-5,6-dihydro-4H-imidazo[4,5,1-ij]quinoline], for which the EC50 was 0.37 µM.

Regarding `O=C1CCN2C(CN3CCC(c4ccc(F)cc4)CC3)=NC3C=C(F)C=C1C32` (centres unmarked) [Example 28.1, 8-Fluoro-2-[4-(4-fluoro-phenyl)-piperidin-1-ylmethyl]-4,5,9a,9b-tetrahydroimidazo[4,5,1-ij]quinolin-6-one], the EC50 was found to be 1.11 µM.

Consider `CC1CCc2cc(F)cc3nc(CN4CCN(c5ccc(F)cc5)CC4)n1c23` (centres unmarked) [Example 26.56, 8-fluoro-4-methyl-2-{[4(4-fluorophenyl)piperizin-1-yl]methyl}-5,6-dihydro-4H-imidazo[4,5,1-ij]quinoline], for which the EC50 is 1.58 µM.

As for `CC1CCc2cc(F)cc3nc(CN4CC=C(c5ccc(OC(F)(F)F)cc5)CC4)n1c23` (centres unmarked) [Example 26.65, 8-fluoro-4-methyl-2-{[4-(4-trifluoromethoxyphenyl)-3,6-dihydropyridin-1(2H)-yl]methyl}-5,6-dihydro-4H-imidazo[4,5,1-ij]quinoline], the EC50 was 0.08 µM.
